The IC50 is the concentration that inhibits the measured activity by half. High values mean a need for much substance, low ones inhibition by little substance.

Consider 14 molecules from ChEMBL document CHEMBL5518170, “Dual target PARP1/EZH2 inhibitors inducing excessive autophagy and producing synthetic lethality for triple-negative breast cancer therapy” (Eur J Med Chem, 2024).

The subject of test [1] is BT-549. Kind of test: cells. The conditions noted are these: Homo sapiens, BT-549, 72 h.
Description: Cytotoxicity against human BT-549 cells incubated for 72 hrs by MTT assay
Test [2] deals with MCF-10A. In words: cells. The conditions noted are these: Homo sapiens, 72 h.
Description: Cytotoxicity against human MCF-10A cells incubated for 72 hrs by MTT assay
The subject of test [3] is MDA-MB-231. Kind of test: cells. The note with it: Homo sapiens, MDA-MB-231, 72 h.
Description: Cytotoxicity against human MDA-MB-231 cells incubated for 72 hrs by MTT assay
Test [4] has as its system MDA-MB-231. In words: cells. The note with it: Homo sapiens, MDA-MB-231, 72 h. The source holds these as a separate data set.
Test [5] concerns MDA-MB-231. Kind of test: Synergistic antitumor activity against human MDA-MB-231 cells xenografted in BALB/c mouse assessed as tumor growth inhibition at 50 mg/kg,ip administrated in presence of Niraparib for 21 consecutive days. It is filed as functional. The conditions noted are these: read-out: TGI. For orientation: In xenograft studies the graft and the host belong to different species.

Test [6] deals with BT-549. Kind of test: cells. The conditions noted are these: Homo sapiens, BT-549, 72 h. The source holds these as a separate data set.
For test [7], the system named is MCF-10A. In words: cells. The conditions noted are these: Homo sapiens, 72 h. This is another data set of the same source.

Take `CCNc1cc(-c2ccc(CC(=O)N3CCC(c4nc5c(C(N)=O)cccc5[nH]4)CC3)cc2)cc(C(=O)NCc2c(C)cc(C)[nH]c2=O)c1C`: the IC50 in the test with BT-549 [1], in the test with MCF-10A [2] and with MDA-MB-231 [3] was greater than 40 µM each time.
In the case of `CCNc1cc(-c2ccc(CC(=O)NCCc3nc4c(C(N)=O)cccc4[nH]3)cc2)cc(C(=O)NCc2c(C)cc(C)[nH]c2=O)c1C`, the IC50 with BT-549 [1] is 31.5 µM; with MCF-10A [2], greater than 40 µM; in the test with MDA-MB-231 [3] it was greater than 40 µM.
On to `CCNc1cc(-c2ccc(CC(=O)NCCCCCc3nc4c(C(N)=O)cccc4[nH]3)cc2)cc(C(=O)NCc2c(C)cc(C)[nH]c2=O)c1C`, for which the IC50 in the test on BT-549 [1], in the test on MCF-10A [2] and with MDA-MB-231 [3] was greater than 40 µM each time.
Take `CCNc1cc(-c2ccc(CC(=O)N3CCC[C@H](c4nc5c(C(N)=O)cccc5[nH]4)C3)cc2)cc(C(=O)NCc2c(C)cc(C)[nH]c2=O)c1C`: the IC50 in the test on BT-549 [1] was 23.5 µM; in the test with MCF-10A [2], greater than 40 µM; in the test on MDA-MB-231 [3] it was 33.7 µM.
With `CCNc1cc(-c2ccc(CC(=O)NCc3nc4c(C(N)=O)cccc4[nH]3)cc2)cc(C(=O)NCc2c(C)cc(C)[nH]c2=O)c1C`, the half-maximal inhibitory concentration (IC50) in the test on BT-549 [1] is 21.8 µM; with MCF-10A [2] it was greater than 40 µM; in the test with MDA-MB-231 [3] it was greater than 40 µM.
For the molecule `CCNc1cc(-c2ccc(CC(=O)NCCCCc3nc4c(C(N)=O)cccc4[nH]3)cc2)cc(C(=O)NCc2c(C)cc(C)[nH]c2=O)c1C`, the 50% inhibitory concentration (IC50) in the test with BT-549 [1], in the test on MCF-10A [2] and with MDA-MB-231 [3] was greater than 40 µM in each case.
In the case of `CCNc1cc(-c2ccc(CC(=O)NCCCc3nc4c(C(N)=O)cccc4[nH]3)cc2)cc(C(=O)NCc2c(C)cc(C)[nH]c2=O)c1C`, the 50% inhibitory concentration (IC50) is 37.2 µM in the test with BT-549 [1], greater than 40 µM in the test with MCF-10A [2] and greater than 40 µM in the test with MDA-MB-231 [3].
With `CCNc1cc(-c2ccc(CC(=O)N3CCC(Cc4nc5c(C(N)=O)cccc5[nH]4)CC3)cc2)cc(C(=O)NCc2c(C)cc(C)[nH]c2=O)c1C`, the IC50 in the test on BT-549 [1], in the test on MCF-10A [2] and in the test with MDA-MB-231 [3] was greater than 40 µM each time.
In the case of `CCNc1cc(-c2ccc(CC(=O)N3CC(c4nc5c(C(N)=O)cccc5[nH]4)C3)cc2)cc(C(=O)NCc2c(C)cc(C)[nH]c2=O)c1C`, the 50% inhibitory concentration (IC50) in the test with BT-549 [1], with MCF-10A [2] and in the test on MDA-MB-231 [3] was greater than 40 µM in each case.
In the case of `CCNc1cc(-c2ccc(CC(=O)Nc3ccc(-c4nc5c(C(N)=O)cccc5[nH]4)cc3)cc2)cc(C(=O)NCc2c(C)cc(C)[nH]c2=O)c1C`, the IC50 with BT-549 [1], in the test with MCF-10A [2] and in the test on MDA-MB-231 [3] was greater than 40 µM in each case.
`CCn1ccc2c(C(=O)NCc3c(C)cc(C)[nH]c3=O)cc(-c3ccc(-c4nc5c(C(N)=O)cccc5[nH]4)cc3)cc21`: the IC50 in the test on BT-549 [1], in the test on MCF-10A [2] and with MDA-MB-231 [3] was greater than 40 µM each time.
As for `CCNc1cc(-c2ccc(CC(=O)N3CC[C@@H](c4nc5c(C(N)=O)cccc5[nH]4)C3)cc2)cc(C(=O)NCc2c(C)cc(C)[nH]c2=O)c1C`, the 50% inhibitory concentration (IC50) in the test on BT-549 [1] was 22.6 µM; in the test on MCF-10A [2], greater than 40 µM; in the test on MDA-MB-231 [3], greater than 40 µM.
Turning to `CC[C@H](C)n1cc(C)c2c(C(=O)NCc3c(C)cc(C)[nH]c3=O)cc(-c3ccc(N4CCNCC4)nc3)cc21` [GSK2816126], the IC50 in the test with MDA-MB-231 [4] was 6.32 µM; in the test on BT-549 [1] it was 19.2 µM; in the test with BT-549 [6], 8.28 µM; with MCF-10A [7] it was greater than 40 µM; in the test with MCF-10A [2] it was greater than 40 µM; with MDA-MB-231 [3] it was 13.2 µM. Further, the inhibition in vivo at 50 mg/kg with MDA-MB-231 [5] is 57.2%.
On to `O=C(c1cc(Cc2n[nH]c(=O)c3ccccc23)ccc1F)N1CCN(C(=O)C2CC2)CC1` [OLAPARIB], for which the half-maximal inhibitory concentration (IC50) in the test with BT-549 [1] was 35.2 µM; with MCF-10A [2], greater than 40 µM; in the test with MDA-MB-231 [3], 35.8 µM.
